SMILES strings stand for the structures. Like-named read-outs stand apart in the source and are kept apart here.

In general, IC50 refers to the concentration that inhibits the measured activity by half. What is called Ki is a measure of affinity in units of concentration, obtained from inhibition or displacement.

Assay [1] deals with T1, hOCT3 (Homo sapiens, UniProt O75751).
T1 construct: expressed in transfected cells
T1 sequence (O75751 1-556): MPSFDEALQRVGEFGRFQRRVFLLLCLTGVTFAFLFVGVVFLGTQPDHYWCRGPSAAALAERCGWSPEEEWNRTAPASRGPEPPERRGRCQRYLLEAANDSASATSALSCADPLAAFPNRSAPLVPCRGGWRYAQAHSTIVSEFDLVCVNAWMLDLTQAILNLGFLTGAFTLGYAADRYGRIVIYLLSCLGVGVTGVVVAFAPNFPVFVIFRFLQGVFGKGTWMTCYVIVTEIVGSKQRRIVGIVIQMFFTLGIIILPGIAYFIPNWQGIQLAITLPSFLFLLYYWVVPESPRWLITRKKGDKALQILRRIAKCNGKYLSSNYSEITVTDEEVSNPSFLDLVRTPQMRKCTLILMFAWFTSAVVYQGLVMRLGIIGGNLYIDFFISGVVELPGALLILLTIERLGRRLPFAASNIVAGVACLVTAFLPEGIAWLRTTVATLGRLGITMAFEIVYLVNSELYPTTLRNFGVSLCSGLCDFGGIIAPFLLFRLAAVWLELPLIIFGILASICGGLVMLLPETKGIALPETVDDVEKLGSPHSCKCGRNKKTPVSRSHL
Briefly: [3H]MPP+ uptake inhibition assay, HEK293 cells stably expressing hOCT3. The format is cell-based.
Procedure: (§1) HEK293 cells were transfected with a plasmid, encoding the transporter of interest and an N-terminal YFP-tag, carried out using jetPRIME ^© (Polyplus Transfection; (VWR International GmbH, Vienna, Austria)) reagent (for a 10 cm dish with 1–2 × 10^6 cells in 10 mL serum containing medium at 60–80% confluency: 500 μ L jetPRIME ^© buffer, 10 μ g DNA and 20 μ L jetPRIME ^© reagent) and selection pressure maintained for two weeks [2, 54, 55]. Subsequently, 500,000 cells were FACS-sorted (fluorescence-activated cell sorting) according to expression level to establish cell lines stably expressing the protein of interest. […] For uptake inhibition assays, cells were cultured at a subconfluent (80–90% density) state in high-glucose Dulbecco’s Modified Eagle Medium (DMEM ), enriched with 10% heat-inactivated Fetal Bovine Serum (FBS) and penicillin/streptomycin (PS; 100 U × 100 mL ^−1 , each). Selection pressure was maintained by the addition of geneticin (50 mg × mL ^−1 ) at 37 ^∘ C and 5% CO 2 in a humidified incubator. At a density of 60,000 cells per well, HEK293 cells expressing the respective transporter were seeded onto poly-D-lysine-coated wells 24 h prior to uptake inhibition experiments in a final volume of 200 μ L per well.
(§2) Prior to the addition of the respective compounds, DMEM was removed from all wells and replaced with 200 μ L of Krebs-HEPES-buffer (KHB; 10 mM HEPES, 120 mM NaCl, 3 mM KCl, 2 mM CaCl 2 , 2 mM MgSO 4 and 20 mM D-glucose, pH adjusted to 7.3) at room temperature. Cells were exposed to a pre-incubation solution containing the compound of interest in the respective concentration (dissolved in Krebs-HEPES-buffer) for 10 min with a total volume of 50 μ L, which was then replaced with a 50 μ L uptake solution containing 0.05 μ M of tritiated 1-methyl-4-phenylpyridinium ([ ^3 H]MPP ^+ ) as substrate, and the compound of interest in respective concentrations, for 10 minutes each. Finally, uptake was terminated by washing with 200 μ L of ice-cold (4 ^∘ C) KHB, after which cells were lysed with 200 μ L of 1% sodium dodecyl sulphate (SDS). After transferring the solution of each well into 6 mL counting vials containing 2 mL of scintillation cocktail, the vials were measured with a beta-scintillation counter for quantification of the uptake of tritiated substrate. […] To obtain specific data, non-specific uptake was assessed in the presence of 100 μ M D22 and subtracted from the total data. The 100% values were defined as uptake in the absence of a tested substance, defining maximal uptake capacity. Inhibitions of the compound of interest were described as a percentage of the maximal uptake capacity.
(§3) Half-maximal inhibitory concentration ( IC50 ) values of each substance were calculated and plotted using GraphPad Prism 8.4.3 (GraphPad Software Inc., San Diego, CA, USA). IC50 was determined by non-linear regression, solving the equation Y=Bottom+(Top−Bottom)/(1+10^X−LogEC50) . […] All data stem from a minimum of three separate experiments (n≥ 3) executed in triplicates and are shown as mean ± SD.

Assay [2] concerns the target T2, hOCT2 (Homo sapiens, UniProt O15244).
T2 construct: expressed in transfected cells
T2 sequence (O15244 1-555): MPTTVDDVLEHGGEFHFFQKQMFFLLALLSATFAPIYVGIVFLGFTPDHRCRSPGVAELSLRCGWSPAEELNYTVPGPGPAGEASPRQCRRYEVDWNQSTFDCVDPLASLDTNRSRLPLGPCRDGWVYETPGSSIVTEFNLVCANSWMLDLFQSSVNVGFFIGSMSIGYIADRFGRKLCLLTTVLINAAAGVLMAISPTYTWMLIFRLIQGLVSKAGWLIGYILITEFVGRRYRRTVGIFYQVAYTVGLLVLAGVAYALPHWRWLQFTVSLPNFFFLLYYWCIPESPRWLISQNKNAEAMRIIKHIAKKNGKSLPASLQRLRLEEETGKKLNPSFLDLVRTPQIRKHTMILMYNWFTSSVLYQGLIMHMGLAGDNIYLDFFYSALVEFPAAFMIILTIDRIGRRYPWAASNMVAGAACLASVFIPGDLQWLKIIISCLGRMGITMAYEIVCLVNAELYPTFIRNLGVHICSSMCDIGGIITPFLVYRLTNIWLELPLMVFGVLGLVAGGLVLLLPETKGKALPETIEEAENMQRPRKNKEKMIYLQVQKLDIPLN
Conditions: Table S1, supplementary reference list, cited from earlier work; for IC50: read-out: IC50 literature hOCT2; for Ki: read-out: IC50 literature hOCT2 (Ki), Ki values.

For assay [3], the target named is T3, hOCT1 (Homo sapiens, UniProt O15245).
T3 construct: expressed in transfected cells
T3 sequence (O15245 1-554): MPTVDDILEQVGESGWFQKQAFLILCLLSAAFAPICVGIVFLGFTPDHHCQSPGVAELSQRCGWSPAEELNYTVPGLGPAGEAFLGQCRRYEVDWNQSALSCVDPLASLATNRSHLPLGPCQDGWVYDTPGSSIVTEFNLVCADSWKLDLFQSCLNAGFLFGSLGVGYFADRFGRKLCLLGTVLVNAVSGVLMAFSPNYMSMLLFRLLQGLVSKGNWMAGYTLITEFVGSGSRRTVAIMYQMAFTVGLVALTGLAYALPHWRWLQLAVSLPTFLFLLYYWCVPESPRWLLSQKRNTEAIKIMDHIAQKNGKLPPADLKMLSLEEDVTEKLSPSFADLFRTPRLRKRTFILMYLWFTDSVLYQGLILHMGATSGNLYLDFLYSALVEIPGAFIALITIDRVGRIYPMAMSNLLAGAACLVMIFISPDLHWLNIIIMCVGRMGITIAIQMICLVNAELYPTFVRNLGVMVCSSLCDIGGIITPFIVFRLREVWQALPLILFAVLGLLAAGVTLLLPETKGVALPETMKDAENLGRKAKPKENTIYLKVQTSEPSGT
Conditions: Table S1, supplementary reference list, cited from earlier work; for IC50: read-out: IC50 literature hOCT1; for Ki: read-out: IC50 literature hOCT1 (Ki), Ki values.

The target of assay [4] is T4, hPMAT (Homo sapiens, UniProt Q7RTT9).
T4 construct: expressed in transfected cells
T4 sequence (Q7RTT9 1-530): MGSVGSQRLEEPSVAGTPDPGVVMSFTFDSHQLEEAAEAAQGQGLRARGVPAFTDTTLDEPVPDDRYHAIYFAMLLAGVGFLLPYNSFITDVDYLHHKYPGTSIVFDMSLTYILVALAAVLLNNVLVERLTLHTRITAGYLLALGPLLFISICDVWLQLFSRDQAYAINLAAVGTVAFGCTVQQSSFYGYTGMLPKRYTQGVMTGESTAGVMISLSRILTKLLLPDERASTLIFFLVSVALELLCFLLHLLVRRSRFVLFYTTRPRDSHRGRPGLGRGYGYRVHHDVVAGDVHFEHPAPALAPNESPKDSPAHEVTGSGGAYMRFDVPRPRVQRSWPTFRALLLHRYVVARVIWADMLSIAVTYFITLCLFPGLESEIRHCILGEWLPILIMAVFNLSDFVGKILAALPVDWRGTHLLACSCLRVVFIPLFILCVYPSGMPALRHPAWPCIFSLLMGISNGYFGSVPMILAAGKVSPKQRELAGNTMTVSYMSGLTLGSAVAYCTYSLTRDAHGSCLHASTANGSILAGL
Kind of assay: [3H]MPP+ uptake inhibition assay, HEK293 cells stably expressing hPMAT. The format is cell-based.
Procedure: as §1, §2, §3

Assay [5] concerns the target T1, hOCT3. Conditions: Table S1, supplementary reference list, cited from earlier work; for Ki: read-out: IC50 literature hOCT3 (Ki), Ki values.
For assay [6], the target named is T3, hOCT1. Briefly: [3H]MPP+ uptake inhibition assay, HEK293 cells stably expressing hOCT1. The format is cell-based.
Procedure: as §1, §2, §3
Assay [7] has as its target T4, hPMAT. Conditions: Table S1, supplementary reference list, read-out: IC50 literature hPMAT, cited from earlier work.
Assay [8] addresses T2, hOCT2. Kind of assay: [3H]MPP+ uptake inhibition assay, HEK293 cells stably expressing hOCT2. The format is cell-based.
Procedure: as §1, §2, §3
A further assay has as its system mOCT3. Also noted: method as in earlier work. Conditions: Table S1, hOCT3 column, marked (mOCT3); supplementary reference list; read-out: IC50 literature (mOCT3); cited from earlier work.

`CC(NC(C)(C)C)C(=O)c1cccc(Cl)c1` (stereo not drawn) [Bupropion, bupropion]: the IC50 at hOCT3 [1] (HEK293 stably expressing hOCT3, 0.05 μM [3H]MPP+, 10 min pre-incubation, 10 min uptake, brackets in Table S1 = 95%-CI, n.s. = non-significant, read-out: IC50 hOCT3 (inhibitory potency, [3H]MPP+ uptake)) is 186 µM; on hOCT2 [2] (ref 1) it was 28.6 µM; at hOCT2 [2] (ref 2) it was 32.2 µM; on hOCT1 [3] (ref 1), 161 µM; at hPMAT [4] (HEK293 stably expressing hPMAT, 0.05 μM [3H]MPP+, 10 min pre-incubation, 10 min uptake, brackets in Table S1 = 95%-CI, n.s. = non-significant, read-out: IC50 hPMAT (inhibitory potency, [3H]MPP+ uptake)) it was 97 µM; at hOCT3 [5] (ref 1, read-out: IC50 literature hOCT3) it was 738 µM. Also, the IC50 on hOCT1 [6] (HEK293 stably expressing hOCT1, 0.05 μM [3H]MPP+, 10 min pre-incubation, 10 min uptake, brackets in Table S1 = 95%-CI, n.s. = non-significant, read-out: IC50 hOCT1 (inhibitory potency, [3H]MPP+ uptake)) was 5.36 µM; at hPMAT [7] (ref 3), 115 µM; at hOCT2 [8] (HEK293 stably expressing hOCT2, 0.05 μM [3H]MPP+, 10 min pre-incubation, 10 min uptake, brackets in Table S1 = 95%-CI, n.s. = non-significant, read-out: IC50 hOCT2 (inhibitory potency, [3H]MPP+ uptake)), 32.9 µM.
On to `CN(C)CCCC1(c2ccc(F)cc2)OCc2cc(C#N)ccc21` (stereo not drawn) [Citalopram], for which the IC50 on hOCT2 [2] (ref 1) is 115 µM; on hOCT1 [3] (ref 1), 13.2 µM; at hPMAT [7] (ref 4), 117 µM.
In the case of `COC(=O)[C@H]1[C@@H](OC(=O)c2ccccc2)C[C@@H]2CC[C@H]1N2C` [Cocaine, cocaine], the “IC50 hOCT3 (inhibitory potency, [3H]MPP+ uptake)” value at hOCT3 [1] (HEK293 stably expressing hOCT3, 0.05 μM [3H]MPP+, 10 min pre-incubation, 10 min uptake, brackets in Table S1 = 95%-CI, n.s. = non-significant) is on record as “n.s”. Also, the values for the Ki on hOCT2 [2] and at hOCT1 [3] were 113 ± 21 µM and 85 ± 22 µM, respectively. In addition, the “IC50 hPMAT (inhibitory potency, [3H]MPP+ uptake)” value against hPMAT [4] (HEK293 stably expressing hPMAT, 0.05 μM [3H]MPP+, 10 min pre-incubation, 10 min uptake, brackets in Table S1 = 95%-CI, n.s. = non-significant) was “n.s”. Further, the IC50 at hOCT1 [6] was found to be 6.66 µM; against hOCT2 [8], 27.8 µM.
For `CN1C(=O)CN=C(c2ccccc2)c2cc(Cl)ccc21` [Diazepam, diazepam], the IC50 in the assay on mOCT3 was 40 µM.
On to `CNC1(c2ccccc2Cl)CCCCC1=O` (stereo not drawn) [Ketamine, ketamine], for which the IC50 is 1030 µM at hOCT3 [1]; 135 µM on hPMAT [4]; 440 µM at hOCT3 [5] (read-out: IC50 literature hOCT3, ASP+ as substrate); 23.5 µM against hOCT1 [6]; 12.5 µM against hOCT2 [8]. The “IC50 literature hOCT2 (Km)” value at hOCT2 [2] (Km) was 33.5 ± 20.3 µM. The results for the Ki at hOCT2 [2], at hOCT1 [3] and on hOCT3 [5] were 22.7 ± 6.3 µM, 115 ± 43.7 µM and 226 ± 65 µM, respectively. For the same molecule, the “IC50 literature hOCT1 (Km)” value on hOCT1 [3] (Km) was 73.9 ± 15.2 µM. Moreover, on hOCT3 [5] (Km), the “IC50 literature hOCT3 (Km)” value is reported as 52.9 ± 15.0 µM.
With `CNC(C)Cc1ccc2c(c1)OCO2` (stereo not drawn) [MDMA, 3,4-methylenedioxymethamphetamine], the IC50 against hOCT3 [1] came out at 154 µM; at hPMAT [4], 7.77 µM; on hOCT1 [6], 1.14 µM; against hOCT2 [8], 2.71 µM. Moreover, the “Effect on substrate uptake by hOCT3 (in words)” value at hOCT3 [1] ([3H]MPP+ uptake, HEK293 hOCT3) is listed as “not inhibiting uptake”. The results for the Ki on hOCT2 [2], at hOCT1 [3] and on hOCT3 [5] were 1.63 ± 0.62 µM, 24.2 ± 9.2 µM and 73.6 ± 50.3 µM, respectively.
Regarding `C[C@H](N)Cc1ccccc1` [d-Amphetamine, d-amphetamine], the IC50 at hOCT3 [1] was 337 µM; on hOCT2 [2] it was 20.3 ± 16.9 µM; at hOCT1 [3] it was 96.7 ± 37 µM; against hPMAT [4], 71.8 µM; on hOCT3 [5] (marked (5-HT), read-out: IC50 literature hOCT3 (5-HT)), 24.1 ± 70 µM; on hOCT3 [5] (marked (DA), read-out: IC50 literature hOCT3 (DA)), 41.5 ± 7.5 µM. For the same molecule, the IC50 at hOCT3 [5] (read-out: IC50 literature hOCT3, ref 8) was 363 ± 56.4 µM; on hOCT3 [5] (read-out: IC50 literature hOCT3, ref 9) it was 42 ± 7 µM; at hOCT1 [6] it was 8.39 µM; against hOCT2 [8] it was 2.21 µM. Moreover, the Ki was 10.5 ± 2.6 µM at hOCT2 [2], 202 ± 68 µM at hOCT1 [3] and 460 ± 140 µM on hOCT3 [5].
On to `CCCC(C(=O)c1ccccc1)N1CCCC1` (stereo not drawn) [α-PVP], for which the IC50 at hOCT2 [2] (ref 13) was 5.62 µM; at hOCT2 [2] (ref 14), 17.5 ± 2.5 µM; at hOCT1 [3] (ref 13) it was 1.31 µM; on hOCT3 [5] (ref 13, read-out: IC50 literature hOCT3) it was 1630 µM; at hOCT3 [5] (ref 14, read-out: IC50 literature hOCT3) it was above 1000 µM; at hPMAT [7] (ref 13), 13.4 µM.

The values above are taken from publication PMC8657792, “Interaction Profiles of Central Nervous System Active Drugs at Human Organic Cation Transporters 1–3 and Human Plasma Membrane Monoamine Transporter” (International Journal of Molecular Sciences, 2021).
